Experimental data: patent US20060128614A1, “Antimicrobial peptides with reduced hemolysis and methods of their use” (priority 2002, published 2006)
≈ marks a conversion by molar mass, not a printed value. Like-named read-outs stand apart in the source and are kept apart here. Non-standard residues stand in square brackets, D forms with d. Residues, ends and D or L forms follow the SMILES beside them. Bip = N[C@@H](Cc1ccc(-c2ccccc2)cc1)C(=O)O; 1Nal = N[C@@H](Cc1cccc2ccccc12)C(=O)O; 2Nal = N[C@@H](Cc1ccc2ccccc2c1)C(=O)O

Legend:
E. coli = type: cell-based, Escherichia coli
Protocol: (§1) The in vitro antimicrobial activities of antimicrobial agents were tested using standard NCCLS bacterial and fungi inhibition assays or minimum inhibition concentration (MIC) tests. The MIC value is the lowest concentration of peptide at which the visible growth of test organisms was inhibited and reduced. Overnight cultures of the test organisms were diluted to produce an inoculum containing approximately […] in Meuller-Hinton broth (MHB). From the peptide stock solution, serial dilutions of the peptides into […] were prepared and all wells of a 96-well microtiter plate were subsequently inoculated with the diluted culture of the test organisms. After 18 hours of incubation at 37°, the results were assayed for turbidity as an indicator of cell growth. MIC values for the peptides are shown in Table 3 and Table 4 and FIGS. 1(A), 1(B), 1 (C) and 1 (D) show survival rates for Pac-625 and Pac-626.

S. aureus = type: cell-based, Staphylococcus aureus
Protocol: as §1

[1] = system: human red blood cells (RBC); type: cell-based
Protocol: Pac-401, Pac-403, Pac-625 and Pac-626 were tested for hemolysis against human red blood cells (RBC). The RBCs with EDTA were rinsed 3 times with PBS (800 g, 10 min) and re-suspended in PBS. The RBCs were diluted into 10% with phosphate-buffered saline and placed […] into each eppendorf. The peptides dissolved in PBS were then added to 50 μl of 10% solution of RBCs and incubated for an hour at 37° C. (final RBC concentration, 5% v/v). The samples were centrifuged at 800 g for 10 min […]. Various concentrations of peptides were incubated with pretreated RBC and the percentage of hemolysis determined.

[2] = system: outer membrane of E. coli; test: NPN uptake assay, outer membrane permeabilization; type: cell-based; settings: intact cells of E. coli
Protocol: The outer membrane permeabilization activity of the peptide variants was determined by the 1-N-phenylnaphthylamine (NPN) uptake assay, using intact cells of E. coli. […] Since NPN is hydrophobic, it provides a direct measurement of the degree of outer membrane permeability. E. coli take up little or no NPN in a general condition. In the presence of permeabilizer compounds (EDTA, polymyxin B, Neomycin, or antimicrobial peptides), NPN partitioned into the bacterial outer membrane results in an increase in fluorescence. Fluorescence will vary with the concentration of peptide.
One ml of overnight culture was used to inoculate 50 ml of media and incubated at 37° C. with shaking. The culture was permitted to grow to an OD600 of 0.4 to 0.6, cells were spun down at 3500 rpm for 10 minutes, washed, and re-suspended in buffer to an OD600 of 0.5. The OD600 was recorded, 1 ml of cells (OD600=0.5) was added to the cuvette and measured after 2-5 seconds. 20 μl NPN 0.5 mM, shaken to mix, was added and measured after 2-5 seconds. 10 ul antibiotic 100× desired final concentration was added, shaken to mix, and measured until the maximal value was reached within 1 to 5 minutes. The concentration of peptide leading to 50% of the maximum increase in NPN uptake was recorded as the P50.

[3] = qualitative statement

| MIC against E. coli (E. coli; 18 h) | MIC against S. aureus (S. aureus; 18 h) | SMILES | also measured |
| --- | --- | --- | --- |
| >64 µg/mL | >64 µg/mL | CC[C@H](C)[C@@H]1NC(=O)[C@H](Cc2ccc3ccccc3c2)NC(=O)[C@H](CCCNC(=N)N)NC(=O)[C@H](CCCNC(=N)N)NC(=O)[C@H](Cc2ccc3ccccc3c2)NC(=O)[C@H](CCCCN)NC1=O [Pac-401 C, K (2-Nal) R R (2-Nal) I] (cyclo(K[2Nal]RR[2Nal]I); ring closure inferred) |  |
| 16 µg/mL (≈ 15.9 µM) | 8 µg/mL (≈ 7.94 µM) | CC[C@H](C)[C@H](NC(=O)[C@H](Cc1ccc2ccccc2c1)NC(=O)[C@H](CCCNC(=N)N)NC(=O)[C@H](CCCNC(=N)N)NC(=O)[C@H](Cc1ccc2ccccc2c1)NC(=O)[C@H](CCCCN)NC(C)=O)C(N)=O [Pac-401 L, K (2-Nal) R R (2-Nal) I] (Ac-K[2Nal]RR[2Nal]I-NH2) | % lysis @ 5 μg/ml [1]: 0.85%; % lysis @ 50 μg/ml [1]: 6.8%; % lysis @ 500 μg/ml [1]: 14% |
| >64 µg/mL | >64 µg/mL | CC(C)[C@@H]1NC(=O)[C@H](Cc2ccc3ccccc3c2)NC(=O)[C@H](CCCNC(=N)N)NC(=O)[C@H](CCCNC(=N)N)NC(=O)[C@H](Cc2ccc3ccccc3c2)NC(=O)[C@H](CCCCN)NC1=O [Pac-402 C, K (2-Nal) R R (2-Nal) V] (cyclo(K[2Nal]RR[2Nal]V); ring closure inferred) |  |
| 24 µg/mL (≈ 24.2 µM) | 16 µg/mL (≈ 16.1 µM) | CC(=O)N[C@@H](CCCCN)C(=O)N[C@@H](Cc1ccc2ccccc2c1)C(=O)N[C@@H](CCCNC(=N)N)C(=O)N[C@@H](CCCNC(=N)N)C(=O)N[C@@H](Cc1ccc2ccccc2c1)C(=O)N[C@H](C(N)=O)C(C)C [Pac-402 L, K (2-Nal) R R (2-Nal) V] (Ac-K[2Nal]RR[2Nal]V-NH2; N-terminus and C-terminus assumed) | P50 (concentration of peptide leading to 50% of the maximum increase in NPN uptake) [2]: 16 µg/mL |
| >64 µg/mL | >64 µg/mL | CC[C@H](C)[C@@H]1NC(=O)[C@H](Cc2ccc3ccccc3c2)NC(=O)[C@H](CCCCN)NC(=O)[C@H](CCCNC(=N)N)NC(=O)[C@H](Cc2ccc3ccccc3c2)NC(=O)[C@H](CCCCN)NC1=O [Pac-403 C, K (2-Nal) I K (2-Nal) R] (cyclo(K[2Nal]IK[2Nal]R); ring closure inferred) |  |
| 24 µg/mL (≈ 24.5 µM) | 16 µg/mL (≈ 16.3 µM) | CC[C@H](C)[C@H](NC(=O)[C@H](Cc1ccc2ccccc2c1)NC(=O)[C@H](CCCCN)NC(C)=O)C(=O)N[C@@H](CCCCN)C(=O)N[C@@H](Cc1ccc2ccccc2c1)C(=O)N[C@@H](CCCNC(=N)N)C(N)=O [Pac-403 L, K (2-Nal) I K (2-Nal) R] (Ac-K[2Nal]IK[2Nal]R-NH2) | % lysis @ 5 μg/ml [1]: 0.74%; % lysis @ 50 μg/ml [1]: 7.2%; % lysis @ 500 μg/ml [1]: 15% |
|  |  | CC[C@H](C)[C@H](NC(C)=O)C(=O)N[C@@H](Cc1c[nH]c2ccccc12)C(=O)N[C@@H](CCCNC(=N)N)C(=O)N[C@H](C(=O)N[C@@H](Cc1c[nH]c2ccccc12)C(=O)N[C@@H](CCCNC(=N)N)C(=O)N[C@@H](CCCNC(=N)N)C(=O)N[C@@H](Cc1c[nH]c2ccccc12)C(=O)N[C@@H](CCCCN)C(N)=O)C(C)C [Pac-525rev, Ac-IWRVWRRWK-NH2] (Ac-IWRVWRRWK-NH2) | hemolytic activity [3]: very similar to that of Pac-525 |
|  |  | CC[C@H](C)[C@H](NC(=O)[C@H](Cc1ccc2ccccc2c1)NC(=O)[C@H](CCCCN)NC(=O)[C@@H](NC(=O)[C@H](Cc1ccc2ccccc2c1)NC(=O)[C@H](CCCCN)NC(=O)[C@@H](NC(=O)[C@H](Cc1ccc2ccccc2c1)NC(=O)[C@H](CCCCN)NC(C)=O)[C@@H](C)CC)[C@@H](C)CC)C(N)=O [Pac-621, Ac-K(2-Nal) IK(2-Nal) IK(2-Nal) I-NH2] (Ac-K[2Nal]IK[2Nal]IK[2Nal]I-NH2) | MIC against E. coli (E. coli): 8 µg/mL (≈ 5.82 µM); MIC against S. aureus (S. aureus): 16 µg/mL (≈ 11.6 µM) |
| 64 µg/mL (≈ 45.7 µM) | 64 µg/mL (≈ 45.7 µM) | CC[C@H](C)[C@@H]1NC(=O)[C@H](Cc2ccc3ccccc3c2)NC(=O)[C@H](CCCNC(=N)N)NC(=O)[C@H](C(C)C)NC(=O)[C@H](Cc2ccc3ccccc3c2)NC(=O)[C@H](CCCNC(=N)N)NC(=O)[C@H](CCCNC(=N)N)NC(=O)[C@H](Cc2ccc3ccccc3c2)NC(=O)[C@H](CCCCN)NC1=O [Pac-625 C, K (2-Nal) R R (2-Nal) V R (2-Nal) I] (cyclo(K[2Nal]RR[2Nal]VR[2Nal]I); ring closure inferred) |  |
| 64 µg/mL (≈ 45.7 µM) | 64 µg/mL (≈ 45.7 µM) | CC[C@H](C)[C@@H]1NC(=O)[C@H](CCCCN)NC(=O)[C@H](Cc2ccc3ccccc3c2)NC(=O)[C@H](CCCNC(=N)N)NC(=O)[C@H](CCCNC(=N)N)NC(=O)[C@H](Cc2ccc3ccccc3c2)NC(=O)[C@H](C(C)C)NC(=O)[C@H](CCCNC(=N)N)NC(=O)[C@H](Cc2ccc3ccccc3c2)NC1=O [Pac-626 C, I (2-Nal) R V (2-Nal) R R (2-Nal) K] (cyclo(I[2Nal]RV[2Nal]RR[2Nal]K); ring closure inferred) |  |
| 64 µg/mL (≈ 45.7 µM) | 64 µg/mL (≈ 45.7 µM) | CC[C@H](C)[C@@H]1NC(=O)[C@H](Cc2cccc3ccccc23)NC(=O)[C@H](CCCNC(=N)N)NC(=O)[C@H](C(C)C)NC(=O)[C@H](Cc2cccc3ccccc23)NC(=O)[C@H](CCCNC(=N)N)NC(=O)[C@H](CCCNC(=N)N)NC(=O)[C@H](Cc2cccc3ccccc23)NC(=O)[C@H](CCCCN)NC1=O [Pac-627 C, K (1-Nal) R R (1-Nal) V R (1-Nal) I] (cyclo(K[1Nal]RR[1Nal]VR[1Nal]I); ring closure inferred) |  |
| 4 µg/mL (≈ 2.74 µM) | 4 µg/mL (≈ 2.74 µM) | CC[C@H](C)[C@H](NC(=O)[C@H](Cc1cccc2ccccc12)NC(=O)[C@H](CCCNC(=N)N)NC(=O)[C@@H](NC(=O)[C@H](Cc1cccc2ccccc12)NC(=O)[C@H](CCCNC(=N)N)NC(=O)[C@H](CCCNC(=N)N)NC(=O)[C@H](Cc1cccc2ccccc12)NC(=O)[C@H](CCCCN)NC(C)=O)C(C)C)C(N)=O [Pac-627 L, K (1-Nal) R R (1-Nal) V R (1-Nal) I] (Ac-K[1Nal]RR[1Nal]VR[1Nal]I-NH2) | MIC against E. coli (E. coli): 4 µg/mL (≈ 2.74 µM); MIC against S. aureus (S. aureus): 4 µg/mL (≈ 2.74 µM) |
| 64 µg/mL (≈ 43.3 µM) | 64 µg/mL (≈ 43.3 µM) | CC[C@H](C)[C@@H]1NC(=O)[C@H](Cc2ccc(-c3ccccc3)cc2)NC(=O)[C@H](CCCNC(=N)N)NC(=O)[C@H](C(C)C)NC(=O)[C@H](Cc2ccc(-c3ccccc3)cc2)NC(=O)[C@H](CCCNC(=N)N)NC(=O)[C@H](CCCNC(=N)N)NC(=O)[C@H](Cc2ccc(-c3ccccc3)cc2)NC(=O)[C@H](CCCCN)NC1=O [Pac-628 C, K (Bip) R R (Bip) V R (Bip) I] (cyclo(K[Bip]RR[Bip]VR[Bip]I); ring closure inferred) |  |
| 2 µg/mL (≈ 1.3 µM) | 4 µg/mL (≈ 2.6 µM) | CC[C@H](C)[C@H](NC(=O)[C@H](Cc1ccc(-c2ccccc2)cc1)NC(=O)[C@H](CCCNC(=N)N)NC(=O)[C@@H](NC(=O)[C@H](Cc1ccc(-c2ccccc2)cc1)NC(=O)[C@H](CCCNC(=N)N)NC(=O)[C@H](CCCNC(=N)N)NC(=O)[C@H](Cc1ccc(-c2ccccc2)cc1)NC(=O)[C@H](CCCCN)NC(C)=O)C(C)C)C(N)=O [Pac-628 L, K (Bip) R R (Bip) V R (Bip) I] (Ac-K[Bip]RR[Bip]VR[Bip]I-NH2) | P50 (concentration of peptide leading to 50% of the maximum increase in NPN uptake) [2]: 4 µg/mL; MIC against E. coli (E. coli): 2 µg/mL (≈ 1.3 µM); MIC against S. aureus (S. aureus): 4 µg/mL (≈ 2.6 µM) |
|  |  | CC[C@H](C)[C@H](NC(=O)[C@H](Cc1ccc2ccccc2c1)NC(=O)[C@H](CCCNC(=N)N)NC(=O)[C@@H](NC(=O)[C@H](Cc1ccc2ccccc2c1)NC(=O)[C@H](CCCNC(=N)N)NC(=O)[C@@H](NC(=O)[C@H](Cc1ccc2ccccc2c1)NC(=O)[C@H](CCCCN)NC(C)=O)[C@@H](C)CC)C(C)C)C(N)=O [Pac-629, Ac-K(2-Nal) IR(2-Nal) VR(2-Nal) I-NH2] (Ac-K[2Nal]IR[2Nal]VR[2Nal]I-NH2) | MIC against E. coli (E. coli): 8 µg/mL (≈ 5.65 µM); MIC against S. aureus (S. aureus): 4 µg/mL (≈ 2.82 µM) |
